# How the values were obtained:
# [1] = FTIR spectroscopy secondary structure; format: physicochemical
# Protocol: Infrared spectra were recorded at 25°C using a Bruker Vector 22™ FTIR spectrometer with a deuterated triglycine sulfate (DTGS) detector, and averaged over 256 scans at a gain of 4 with a resolution of 2 cm^−1. Peptide samples were initially freeze-dried several times from 10 mM HCl in D2O to remove any interfering counter ions and residual H2O. Solution spectra of peptides were made in deuterated 10 mM phosphate buffer, pD = 7.4 (pD = pH+0.4) and in structure promoting mixed solvent-buffer solutions (trifluoroethanol (TFE) or hexafluoroiso propanol (HFIP). Spectra were acquired using a temperature controlled, demountable liquid cell with calcium fluoride windows fitted with a 50 µm thick spacer (Harrick Scientific, Pleasantville, NY). The relative proportions of α-helix, β-turn, β-sheet, and disordered conformations of solution and multilayer IR spectra were determined by Fourier self-deconvolution for band narrowing and area calculations of component peaks of the FTIR spectra using curve-fitting software supplied by Galactic Software (GRAMS/AI, version 8.0; Thermo Electron Corp., Waltham, MA). The frequency limits for the different structures were: α-helix (1662–1645 cm^−1), β-sheet (1637–1613 and 1710–1682 cm^−1), turns (1682–1662 cm^−1), and disordered or random (1650–1637 cm^−1).
# CXCR4 (HIV-1IIIB) = assay: p24^gag antigen release assay using PBMCs, CXCR4 strain; format: cell-based; conditions: PBMC based p24^gag antigen release assay
# HIV-1 (BaL) = format: cell-based; conditions: TZM-bl assay; HIV-1 BaL (R5); 24 hr; luciferase activity
# Protocol: The ability of the analogs to inhibit HIV infection was determined with an assay that determines viral infectivity with an LTR-mediated luciferase reporter construct [37]. In brief, TZM-bl reporter cells are HeLa-derived JC53-BL cells that express high levels of CD4, CXCR4, and CCR5. They also contain reporter cassettes for luciferase and β-galactosidase, both driven by the HIV-1 long terminal repeat [38]). 24 hr after these reporter cells were exposed to R5 lab-adapted strains of HIV-1 (BaL) in the presence of peptides, protection was measured as % reduction in luciferase activity (relative light units) compared to cells infected with virus and peptide vehicle alone.
# [2] = CD analysis of secondary structure; format: physicochemical; conditions: for disordered / turns / α-helix / β-sheet: Selcon
# Protocol: Peptide was scanned at 20 nm per minute in a 0.01 cm path-length cell at 25°C with a sample interval of 0.2 nm. The peptide concentration was determined by UV absorbance at 280 nm. After baseline correction, spectra were expressed as the Mean Residue Ellipticity [θ]MRE. Quantitative estimates of secondary structural contributions were made with Selcon using the spectral basis set for proteins in the Olis Global Works™ software package (Olis Inc., Bogart, GA).
# [3] = target: GRFN-1 (self-association); assay: SPR self-association of GRFN-1; format: binding; conditions: BIAcore CM5 chip, HBS-EP pH = 7.4, KD±SEM, average from at least 5 independent experiments
# Protocol: Surface plasmon resonance (SPR) studies were performed on a BIAcore 3000 system (BiaCore AB, Piscataway, NJ), using BIAcore CM5 sensor chips and HBS-EP running buffer (pH = 7.4) containing 10 mM HEPES, 150 mM NaCl, 3 mM EDTA, and 0.005% polysorbate 20. Proteins/peptides were immobilized on a CM5 sensor chip using the amine coupling method. The chip was activated by mixing 400 mM N-ethyl-N-(3-dimethylaminopropyl)-carbodiimide hydrochloride and 100 mM N-hydroxysuccinimide. Residual reactive groups on the chip surface were blocked using 1.0 M ethanolamine/HCl (pH = 8.5). The flow cell-1 chamber, which served as a control, lacked immobilized protein but was treated with N-ethyl-N-(3-dimethylaminopropyl)-carbodiimide hydrochloride, N-hydroxysuccinimide, and ethanolamine/HCl. Binding signals were corrected for nonspecific binding by subtracting the flow cell-1 signal. To regenerate chip surfaces, bound ligands were removed with 10 mM HCl. Data were analyzed with BIAevaluation 4.1 software (Biacore, Piscataway, NJ).
# [4] = 0.5 mM in 10 mM phosphate buffer pH = 7.5, 25°C
# [5] = 0.5 mM in HFIP:10 mM phosphate buffer pH = 7.5 (4∶6, v∶v), 25°C
# [6] = 0.5 mM in TFE:10 mM phosphate buffer pH = 7.5 (4∶6, v∶v), 25°C
# [7] = 0.25 mM in 10 mM phosphate buffer pH = 6.5, 25°C
# [8] = 0.5 mM in 10 mM phosphate buffer pH = 6.5, 25°C
# [9] = 0.5 mM in HFIP:10 mM phosphate buffer pH = 6.5 (4∶6, v∶v), 25°C
# [10] = 0.5 mM in TFE:10 mM phosphate buffer pH = 6.5 (4∶6, v∶v), 25°C
substance,measurement,setting,value
Cha-SC-Chg-R-Chg-RSGSY-Cha-DN-Chg-R-Chg-(D)Cys-CONH2 (disulfide) [GRFN-1],disordered,[1]; [4],27.6%
same,turns,[1]; [4],22.4%
same,α-helix,[1]; [4],12.4%
same,β-sheet,[1]; [4],37.6%
same,disordered,[1]; [5],25.8%
same,turns,[1]; [5],17.2%
same,α-helix,[1]; [5],48.6%
same,β-sheet,[1]; [5],8.4%
same,disordered,[1]; [6],24.8%
same,turns,[1]; [6],20.3%
same,α-helix,[1]; [6],23.2%
same,β-sheet,[1]; [6],31.7%
same,secondary structure (in words),[1]; TFE:buffer and HFIP:buffer,shift from β-sheet to more helical conformations
same,secondary structure (in words),[1]; aqueous buffer,dominant β-sheet structure
same,antiviral activity (in words),CXCR4 (HIV-1IIIB),maintained their antiviral activity
same,EC50,HIV-1 (BaL),191 ± 11 nM
same,disordered,[2]; [7],30.0%
same,turns,[2]; [7],21.0%
same,α-helix,[2]; [7],25.0%
same,β-sheet,[2]; [7],24.0%
same,disordered,[2]; [8],31.0%
same,turns,[2]; [8],21.0%
same,α-helix,[2]; [8],13.0%
same,β-sheet,[2]; [8],35.0%
same,disordered,[2]; [9],24.0%
same,turns,[2]; [9],16.0%
same,α-helix,[2]; [9],52.0%
same,β-sheet,[2]; [9],8.0%
same,disordered,[2]; [10],30.0%
same,turns,[2]; [10],23.0%
same,α-helix,[2]; [10],19.0%
same,β-sheet,[2]; [10],28.0%
same,secondary structure (in words),"[2]; 10 mM phosphate buffer, pH = 6.5, 250 µM","almost equal proportions of α-helix, β-sheet, turn and disordered conformations"
same,secondary structure (in words),"[2]; 10 mM phosphate buffer, pH = 6.5, 500 µM vs 250 µM",β-sheet structure increases at the expense of α-helix
same,secondary structure (in words),[2]; HFIP:buffer,dominant helical conformation
same,secondary structure (in words),[2]; TFE:buffer,"mix of α-helix, β-sheet, turns"
same,concentration dependence of conformation,"[2]; TFE:buffer and HFIP:buffer, 50 to 500 µM (data not shown)",not concentration dependent
same,KD (self-association),[3],500 ± 130 nM

# Reference: paper PMC3002932 (PLoS ONE, 2010)
